Some test systems named below: BT-549 breast; CCRF-CEM leukemia; EKVX NSCLC; HOP-92 NSCLC; KM12 colon; NCI-H23 lung; NCI-H522 lung; RPMI-8226 leukemia; SF-268 CNS; SW-620 colon.
Holding throughout (assay): NCI-60 cell line screen, 48 h

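These data come from cells grown in 96-well plates and exposed to compound for 48 hours at five concentrations. The concentration for full growth arrest is given as TGI.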 Bounds are passed on as bounds.

Regarding `N#CC(c1ccc(O)cc1)N1CCN(C(C#N)c2ccc(O)cc2)CC1` (stereo not given), the TGI was above 100 µM in the experiment with BT-549 breast; above 100 µM with CCRF-CEM leukemia; above 76.1 µM with EKVX NSCLC; 60.1 µM with HOP-92 NSCLC; above 100 µM with KM12 colon; above 100 µM in the experiment on NCI-H23 lung. For the same compound, the TGI with NCI-H522 lung is above 100 µM; in the experiment with RPMI-8226 leukemia, above 100 µM; with SF-268 CNS, 64.4 µM; with SW-620 colon it was above 100 µM.
Regarding `NCCC1(N)CCNCC1`, the TGI with BT-549 breast, with CCRF-CEM leukemia, in the experiment with EKVX NSCLC, with HOP-92 NSCLC, with KM12 colon and with NCI-H23 lung was above 100 µM in each case. For the same compound, the TGI in the experiment with NCI-H522 lung, in the experiment on RPMI-8226 leukemia, in the experiment on SF-268 CNS and in the experiment on SW-620 colon was above 100 µM throughout.
As for `COC1/C=C\C=C(/C)C(=O)NC2=CC(=O)C(NCCCl)=C(CC(C)CC(OC)C(O)C(C)/C=C(/C)C1OC(N)=O)C2=O` (stereo not given), the TGI in the experiment on BT-549 breast came out at 2.85 µM; with CCRF-CEM leukemia it was 21.9 µM; with EKVX NSCLC, 22.7 µM; in the experiment on HOP-92 NSCLC it was 18.6 µM; in the experiment with KM12 colon, 2.01 µM; with NCI-H23 lung, 1.27 µM. Moreover, the TGI in the experiment with NCI-H522 lung amounted to 0.319 µM; in the experiment with RPMI-8226 leukemia it was 31.4 µM; in the experiment with SF-268 CNS it was 14 µM; in the experiment on SW-620 colon, 2.55 µM.
For the compound `CCC1(O)C=CC(=O)C=C1`, the TGI in the experiment with BT-549 breast was above 100 µM; in the experiment with CCRF-CEM leukemia, above 100 µM; in the experiment with EKVX NSCLC it was above 100 µM; in the experiment with HOP-92 NSCLC, 75.9 µM; in the experiment with KM12 colon it was 33.5 µM; in the experiment on NCI-H23 lung, 69.3 µM. In addition, the TGI in the experiment with NCI-H522 lung was 24.7 µM; with RPMI-8226 leukemia it was above 100 µM; in the experiment on SF-268 CNS, 52 µM; in the experiment with SW-620 colon, above 100 µM.
Take `CC1C(c2ccc(N(C)C)cc2)c2cc3c(cc2OC1N1CCCC1)OCO3` (stereo not given): the TGI in the experiment on BT-549 breast, with CCRF-CEM leukemia, with EKVX NSCLC, in the experiment on HOP-92 NSCLC, in the experiment on KM12 colon and with NCI-H23 lung was above 100 µM in each case. The TGI in the experiment on NCI-H522 lung was above 82 µM; with RPMI-8226 leukemia, 97.5 µM; with SF-268 CNS, above 100 µM; in the experiment with SW-620 colon it was above 100 µM.
As for `COc1ccc(C2CC(c3cc4c(C)c(C(=O)c5ccccc5)oc4cc3O)=Nc3ccccc3S2)cc1OC` (stereo not given), the TGI in the experiment with BT-549 breast was above 100 µM; with CCRF-CEM leukemia, above 100 µM; in the experiment on EKVX NSCLC, above 100 µM; in the experiment with HOP-92 NSCLC, above 73.7 µM; in the experiment on KM12 colon, above 34.8 µM; with NCI-H23 lung it was above 100 µM. Also, the TGI with NCI-H522 lung is above 85 µM; in the experiment with RPMI-8226 leukemia it was above 100 µM; in the experiment with SF-268 CNS, above 100 µM; in the experiment on SW-620 colon, above 100 µM.
On to `CCCCCCCCCCCCNC(=O)NCC(OCC)OCC`, for which the TGI with BT-549 breast, with CCRF-CEM leukemia, with EKVX NSCLC, in the experiment on HOP-92 NSCLC, in the experiment with KM12 colon and in the experiment with NCI-H23 lung was above 10 µM throughout. The TGI in the experiment with NCI-H522 lung, in the experiment on RPMI-8226 leukemia, in the experiment with SF-268 CNS and in the experiment with SW-620 colon was above 10 µM throughout.
As to `C/C(=N\Nc1nc2cc(C)ccc2s1)c1ccccn1`, the TGI with BT-549 breast was above 69.1 µM; with CCRF-CEM leukemia it was above 100 µM; in the experiment on EKVX NSCLC, above 21 µM; in the experiment on HOP-92 NSCLC it was 10.3 µM; in the experiment with KM12 colon it was 12.6 µM; with NCI-H23 lung it was 11.8 µM. In addition, the TGI in the experiment on NCI-H522 lung was above 19.9 µM; in the experiment with RPMI-8226 leukemia, 3.52 µM; in the experiment on SF-268 CNS, 9.14 µM; in the experiment with SW-620 colon it was above 20.2 µM.
As for `COC(=O)C1Cc2c(C)cccc2C1=O` (stereo not given), the TGI with BT-549 breast, with CCRF-CEM leukemia, with EKVX NSCLC, with HOP-92 NSCLC, in the experiment with KM12 colon and in the experiment with NCI-H23 lung was above 100 µM throughout. Besides, the TGI with NCI-H522 lung, in the experiment with RPMI-8226 leukemia, with SF-268 CNS and in the experiment with SW-620 colon was above 100 µM each time.
In the case of `O=C(CCSC(CC(=O)c1ccc(Cl)cc1)c1ccc(Cl)cc1)Nc1ccc(Cl)cc1` (stereo not given), the TGI with BT-549 breast was determined as 27.1 µM; in the experiment with CCRF-CEM leukemia, 5.55 µM; with EKVX NSCLC, 25.4 µM; with HOP-92 NSCLC it was 32.9 µM; in the experiment on KM12 colon, 12.4 µM; in the experiment with NCI-H23 lung it was 30.4 µM. Further, the TGI in the experiment on NCI-H522 lung is 40.2 µM; in the experiment on RPMI-8226 leukemia it was 5.57 µM; with SF-268 CNS it was 29 µM; with SW-620 colon, 10.5 µM.
For the compound `O=C(Cc1ccc(Cl)c(Cl)c1)NCCCN1CCN(CCCN2CCCCC2)CC1`, the TGI worked out at 57.4 µM in the experiment with BT-549 breast; 34 µM with CCRF-CEM leukemia; 39.3 µM in the experiment on EKVX NSCLC; 24.8 µM with HOP-92 NSCLC; 31.2 µM in the experiment on KM12 colon; 42.6 µM in the experiment on NCI-H23 lung. Also, the TGI in the experiment on NCI-H522 lung was 35.1 µM; in the experiment on RPMI-8226 leukemia it was 16.3 µM; in the experiment on SF-268 CNS it was 50.4 µM; with SW-620 colon, 46.7 µM.
As for `CCOn1cc(C[C@@]2(O)C(=O)OC3[C@@H](O)CO[C@@]32O)c2ccccc21` (stereo not given in full), the TGI in the experiment with BT-549 breast, in the experiment with CCRF-CEM leukemia, with EKVX NSCLC, in the experiment with HOP-92 NSCLC, in the experiment on KM12 colon and with NCI-H23 lung was above 100 µM throughout. For the same compound, the TGI in the experiment on NCI-H522 lung, with RPMI-8226 leukemia, in the experiment with SF-268 CNS and in the experiment with SW-620 colon was above 100 µM each time.
Turning to `CCOC(=O)CC(C)C(C#N)(OP1(=O)OC(c2ccccc2)C(C)N1C)c1ccccc1` (stereo not given), the TGI in the experiment with BT-549 breast, with CCRF-CEM leukemia, in the experiment on EKVX NSCLC, in the experiment with HOP-92 NSCLC, in the experiment with KM12 colon and in the experiment on NCI-H23 lung was above 100 µM throughout. The TGI in the experiment on NCI-H522 lung, with RPMI-8226 leukemia, with SF-268 CNS and in the experiment on SW-620 colon was above 100 µM each time.
Take `COC(=O)c1ccc(CN2CCc3c([nH]c4ccccc34)C2CO)o1` (stereo not given): the TGI in the experiment with BT-549 breast, in the experiment with CCRF-CEM leukemia, in the experiment with EKVX NSCLC, with HOP-92 NSCLC, in the experiment on KM12 colon and with NCI-H23 lung was above 10 µM in each case. The TGI in the experiment with NCI-H522 lung, with RPMI-8226 leukemia, in the experiment on SF-268 CNS and with SW-620 colon was above 10 µM in each case.
`COc1c2nc(CCl)n(C)c(=O)c2c(OC)c2c(=O)n(C)c(CCl)nc12`: the TGI in the experiment with BT-549 breast was 1.96 µM; in the experiment with CCRF-CEM leukemia, 2.09 µM; in the experiment with EKVX NSCLC, 11.8 µM; with HOP-92 NSCLC, above 100 µM; in the experiment with KM12 colon it was 2.46 µM; in the experiment on NCI-H23 lung, 3.4 µM. Moreover, the TGI in the experiment with NCI-H522 lung stood at 2.8 µM; in the experiment on RPMI-8226 leukemia, 1.64 µM; in the experiment with SF-268 CNS, 4.52 µM; with SW-620 colon, 2.6 µM.
For `CCOC(=O)c1ccc(NC2Oc3cc4c(cc3C(c3cc(OC)c(OC)c(OC)c3)C2C)OCO4)cc1` (stereo not given), the TGI was 6.76 µM in the experiment on BT-549 breast; above 20.3 µM in the experiment on CCRF-CEM leukemia; above 100 µM in the experiment with EKVX NSCLC; 32.2 µM in the experiment on HOP-92 NSCLC; 3.69 µM in the experiment with KM12 colon; above 67.3 µM in the experiment on NCI-H23 lung. Also, the TGI in the experiment on NCI-H522 lung was 10.6 µM; in the experiment with RPMI-8226 leukemia, 4.92 µM; in the experiment with SF-268 CNS it was above 40.8 µM; in the experiment on SW-620 colon, above 100 µM.
Regarding `Cc1ccc(N=Nc2c(O)c3ccccc3[nH]c2=O)c(S(=O)(=O)N(C)C)c1`, the TGI in the experiment on BT-549 breast, in the experiment with CCRF-CEM leukemia, in the experiment on EKVX NSCLC, in the experiment on HOP-92 NSCLC, in the experiment with KM12 colon and in the experiment on NCI-H23 lung was above 100 µM each time. The TGI in the experiment with NCI-H522 lung, in the experiment with RPMI-8226 leukemia, in the experiment on SF-268 CNS and with SW-620 colon was above 100 µM each time.
`COc1ccc2c(c1O)-c1c(OC)c(OC)cc3c1[C@H](C2)[N+](C)(C)CC3`: the TGI in the experiment on BT-549 breast, in the experiment on CCRF-CEM leukemia, with EKVX NSCLC, in the experiment with HOP-92 NSCLC, in the experiment with KM12 colon and in the experiment on NCI-H23 lung was above 100 µM throughout. In addition, the TGI in the experiment with NCI-H522 lung, with RPMI-8226 leukemia, in the experiment with SF-268 CNS and in the experiment with SW-620 colon was above 100 µM in each case.
With `CC(=O)N[C@@H](Cc1ccc(O)cn1)C(=O)NCc1cccc(F)c1`, the TGI in the experiment with BT-549 breast, with CCRF-CEM leukemia, in the experiment with EKVX NSCLC, with HOP-92 NSCLC, in the experiment with KM12 colon and with NCI-H23 lung was above 100 µM in each case. Besides, the TGI in the experiment with NCI-H522 lung, with RPMI-8226 leukemia, in the experiment with SF-268 CNS and in the experiment with SW-620 colon was above 100 µM each time.
On to `COc1ccc(-n2c(CCCC(=O)O)nc3c2C(=O)c2ccccc2C3=O)cc1`, for which the TGI with BT-549 breast, with CCRF-CEM leukemia, with EKVX NSCLC, in the experiment on HOP-92 NSCLC, with KM12 colon and with NCI-H23 lung was above 100 µM throughout. In addition, the TGI in the experiment with NCI-H522 lung, with RPMI-8226 leukemia, with SF-268 CNS and in the experiment on SW-620 colon was above 100 µM each time.
On to `CCOC(=O)C1(Cc2ccc(C)cc2)Cc2ccc(C)cc2C1=O` (stereo not given), for which the TGI in the experiment with BT-549 breast was 80.8 µM; in the experiment on CCRF-CEM leukemia, 64.1 µM; in the experiment with EKVX NSCLC it was above 100 µM; with HOP-92 NSCLC it was above 100 µM; in the experiment on KM12 colon it was above 72.3 µM; with NCI-H23 lung it was above 94.7 µM. Moreover, the TGI in the experiment on NCI-H522 lung was 36.9 µM; in the experiment on RPMI-8226 leukemia, 64.2 µM; in the experiment with SF-268 CNS, above 100 µM; with SW-620 colon, above 100 µM.
Regarding `CN(NC(=O)c1ccco1)C1=NCCCCN1`, the TGI with BT-549 breast, in the experiment on CCRF-CEM leukemia, in the experiment on EKVX NSCLC, in the experiment on HOP-92 NSCLC, in the experiment with KM12 colon and in the experiment with NCI-H23 lung was above 100 µM in each case. Further, the TGI in the experiment with NCI-H522 lung, in the experiment with RPMI-8226 leukemia, in the experiment on SF-268 CNS and in the experiment on SW-620 colon was above 100 µM in each case.

The values are drawn from PubChem BioAssay (NCI).
